Results as given in patent publication US9375450B2, “Vaginal tissue rejuvenation compositions and methods” (priority 2011, dated 2016).

Key:
[1] = test system: ovariectomized (OVX) Sprague-Dawley rats; assay: Vaginal histology and histomorphometry after 2 weeks vaginal suppositories; type: in vivo, rat; conditions: vaginal suppositories 2 weeks; for vaginal epithelial thickness / vaginal muscularis thickness / vaginal lamina propria thickness / vaginal thickness (all three layers of the vagina) / lamina propria collagen fiber compactness: mean±SD; for vaginal epithelial thickness: placebo 57±18; for vaginal muscularis thickness: placebo 121±44; for vaginal lamina propria thickness: placebo 179±71; for vaginal thickness (all three layers of the vagina): placebo 358±86; for vaginal epithelial cornification rate: placebo 0%; for lamina propria collagen fiber compactness: scale 0-5 (0=loose, 5=tight), placebo 4.5±0.6
Protocol: Ten to 12-weeks old female ovariectomized (OVX) Sprague-Dawley rats were utilized for the experiments. The animals were acclimatized to the environmental conditions before starting the experiment. The animals were housed individually and were allowed free access to water and rodent food. […] The suppositories were prepared according to the fusion method, using a polypeg suppository base ([…]., USA). […] Using a microwave, the suppository base was melted in a small beaker for 3 min and then transferred and kept into a water bath at a temperature of 55° C. The proper amount of above reagent was added to the liquefied base and meticulously crushed with a smooth rounded-end glass rod for about 20 min to make the solution to be even and clear. A pipette tip was used to suck some amount of solution and push it into a plastic tube with a diameter of 3.5 mm, and the tube was immediately left on the flat surface of an ice bucket. The suppository turned to white in color when it was solid. The moulded suppository was then pushed out of the tube using a round rod. […] After 30 min of cooling at room temperature, the suppositories were stored at 4° C. in a closed chamber until use. They were left to reach room temperature before use. The day after the last treatment the rats were overnight fasted and then sacrificed. Macroscopic measurement (genital hiatus, vaginal length) were taken and the vagina was dissected out carefully to avoid any injury to the vagina. The mid section of the vagina was utilized for histology (H and E stain, Masson's trichrome stain) and immunofluorescence and the rest of the vagina was used for RNA extraction and RT-PCR. […] For each animal, a 4 μm-thick paraffin section was cut and stained with haematoxylineosin and with Masson's trichrome stain for morphological examination. […] The cornification was determined by the presence of a keratin layer on the vaginal epithelium. Measurements of the different vaginal layers were performed on the fifth segment of the vagina, which is approximately halfway between the middle region and the portio vaginalis uteri. […] Images were captured with a color digital camera and quantified using ImageJ software was used. […] The thickness of the lamina propria was obtained by deducting the thickness of the epithelium and muscularis from total vaginal thickness.

[2] = test system: primary vaginal smooth muscle cells; assay: MTT proliferation assay; type: cell-based, human; conditions: mean±SD
Protocol: After removal of the uterus, full-thickness samples of the anterior vaginal wall were obtained from the vaginal cuff at the anterior midline portion under sterile condition from four women without POP. Specimens were preserved in cold DMEM/F12 (Invitrogen, Carlsbad, Calif.) supplemented with 10% FBS, 1 mM glutamine, 0.075% Na2HCO3 and 100 ug/ml penicillin-streptomycin. After a maximum time of 4 hours from tissue harvesting the tissue was mechanically minced in cold cultured media and the fragments were washed 3 times in PBS and were plated onto fibronectin coated plastic dishes (Thermo Fischer Scientific, Rochester, N.Y.). After the initial outgrowth, clones with a morphology resembling the smooth muscle phenotype were patch cloned and propagated in culture. For cell characterization a 5000 cell/well fibronectin coated 8-well chamber slide was plated. Once cell confluence reached 80% the cells were washed twice with PBS and fixed in 4% PFA for 30 min at 37° C. To verify the intracytoplasmic distribution of F-actin fibers 4% PFA fixed cells were exposed to a permeabilizing solution of Tryton X100 0.1% and Rhodamine Phalloidin for 45 min at 37° C. Slides were then treated with mounting media (Vectashield, Vector Laboratories, Burlingame, Calif.) containing DAPI for nucleic acid staining and image acquisition was performed in glycerol immersion by confocal microscopy. In addition, the 8-well chamber slides were used to carry out the immunocytochemical staining. After blockage of endogenous peroxidase activity with a solution of hydrogen peroxide and methanol, slides were sequentially treated with the primary mouse antibody, biotinylated anti-mouse immunoglobulin, and Streptavidin-biotin-peroxidase complex (LSAB™+/HRP kit, Dako, Carpinteria, Calif.). Diaminobenzidine was used as a chromogen in the presence of hydrogen peroxide. Slides were then counterstained with hematoxylin. All reactions were carried out at room temperature (22° C.). To identify the SMC, anti-smooth muscle actin antibodies were used (monoclonal mouse, 1:250, 30 min incubation, clone 1A4, catalog #0851 Dako, Carpinteria, Calif.). Caldesmon expression was studied with a monoclonal mouse antibody, 1:100, 30 min incubation, (clone h-CD catalog #M3557 Dako, Carpinteria, Calif.). An antigen retrieval step was used for caldesmon using citrate buffer and a steamer for 30 min. As a negative control normal mouse serum was substituted for the antibody.
To perform the MTT proliferation assay, SMC from the fourth to sixth passages (5,000 cells per well) were cultured in 96-well culture plates (Costar, Cambridge, Mass.), in a total volume of 200 μL DMEM/F-12 with 10% FBS. Cells were incubated with zinc sulfate heptahydrate (Sigma, Saint Louis, Mo.) (10 μM, 20 μM and 50 μM), GW501516 (Alexis, Switzerland) (1 nM, 10 nM, 100 nM) in 96-well plates and cell proliferation was assessed by a 3-[4,5-dimethylthiazol-2-yl]-2,5-diphenyl tetrazoliumbromide (MTT) assay at 24 or 48 hrs utilizing a commercially available MTT assay kit (American Type Culture Collection, Catalog #30-1010K, Manassas, Va.). Treatment and control groups were performed in 6 replicate wells. The relative number of viable cells was determined at 24 or 48 hours by incubating the cells with 1 mg/mL of MTT for 4 hours. The live cells utilized MTT resulting in the accumulation of formazan crystals which were then solubilized with acid isopropanol (90% isopropyl alcohol, 2.5% SDS, 0.004 N HCL) for 1 hour. The optical density of the solution was measured at 570 nm.

Row | SMILES | vaginal epithelial thickness [1] | vaginal muscularis thickness [1] | vaginal lamina propria thickness [1] | vaginal thickness (all three layers of the vagina) [1] | vaginal epithelial cornification rate [1] | lamina propria collagen fiber compactness [1] | relative cell number (% of control) ([2]; 1 nM, 24 hrs of culture) | relative cell number (% of control) ([2]; 10 nM, 24 hrs of culture) | relative cell number (% of control) ([2]; 100 nM, 24 hrs of culture) | relative cell number (% of control) ([2]; 10 μM, 48 hrs of culture) | relative cell number (% of control) ([2]; 20 μM, 48 hrs of culture) | relative cell number (% of control) ([2]; 50 μM, 48 hrs of culture)
1 | Cc1cc(SCc2sc(-c3ccc(C(F)(F)F)cc3)nc2C)ccc1OCC(=O)O [GW501516, 2-[2-methyl-4-([4-methyl-2-[4-(trifluoromethyl)phenyl)-1,3-thiazol-5-yl]methylsulfanyl]phenoxy]acetic acid] | 54±23 μm | 130±50 μm | 192±68 μm | 377±98 μm | 25% | 4.0±0.5 relative units | 98.9±10.3 % of control | 95.9±6.5 % of control | 87.0±10.6 % of control | – | – | –
2 | O.O.O.O.O.O.O.O=S(=O)([O-])[O-].[Zn+2] [zinc sulfate, zinc sulfate heptahydrate] | 79±21 μm | 155±58 μm | 242±78 μm | 477±106 μm | 87% | 3.5±0.5 relative units | – | – | – | 94.7±4.6 % of control | 90.4±5.5 % of control | 43.3±30.0 % of control
